How the values were obtained:
Type in all cases: in vivo, human
symptoms of BPH [1] = experiment: Study D: 8 mg Silodosin Once Daily (SI04009), U.S. Phase 3 Study; settings: 8 mg once daily
Description: (§1) In addition, the results for IPSS/AUASS for studies A, B, D and E are illustrated in FIGS. 3 to 6, respectively, and the results for Qmax for studies A, B, D and E are illustrated in FIGS. 7 to 10, respectively.

symptoms of BPH [2] = experiment: Study C: 4 mg or 8 mg Silodosin Once Daily (KMD-3213-US021-99), U.S. Phase 2 Study; settings: for Incidence of Adverse Events: Dizziness / Incidence of Adverse Events: Orthostatic Hypotension / Incidence of Adverse Events: Syncope / Mean Change From Baseline (CFB) in Maximum Flow Rate / IPSS/AUASS baseline value / Maximum Flow Rate baseline value / Mean Change From Baseline (CFB) in IPSS/AUASS: Study C; for IPSS/AUASS baseline value / Maximum Flow Rate baseline value: Week 0
Protocol: The 6-week stable dosing period was preceded by a 4-week placebo lead-in and a 2-week titration period. […] Male patients were selected who were at least 45 years of age with signs and symptoms of BPH (AUASS of 13 and maximum urine flow rate between 4 and 15 mL/sec). In addition, the results for IPSS/AUASS for studies A, B, D and E are illustrated in FIGS. 3 to 6, respectively, and the results for Qmax for studies A, B, D and E are illustrated in FIGS. 7 to 10, respectively.

symptoms of BPH [3] = experiment: Study E: 8 mg Silodosin Once Daily (SI04010), U.S. Phase 3 Study; settings: 8 mg once daily
Description: as §1

[4] = 4 mg once daily, Visit 3 (Day 29), Post-dose (2-6 hr), LOCF
[5] = 4 mg once daily, Visit 4 (Day 36), LOCF
[6] = 4 mg once daily, Visit 4 (Day 36), Post-dose (2-6 hr), LOCF
[7] = 4 mg once daily, Visit 5 (Day 43), LOCF
[8] = 4 mg once daily, Visit 5 (Day 43), Post-dose (2-6 hr), LOCF
[9] = 4 mg once daily, Visit 6 (Day 64), LOCF
[10] = 4 mg once daily, Visit 6 (Day 64), Post-dose (2-6 hr), LOCF
[11] = 4 mg once daily, Visit 7 (EOS, Day 84), LOCF
[12] = 4 mg once daily, Visit 7 (EOS, Day 84), Post-dose (2-6 hr), LOCF
[13] = 8 mg once daily, Visit 3 (Day 29), Post-dose (2-6 hr), LOCF
[14] = 8 mg once daily, Visit 4 (Day 36), LOCF
[15] = 8 mg once daily, Visit 4 (Day 36), Post-dose (2-6 hr), LOCF
[16] = 8 mg once daily, Visit 5 (Day 43), LOCF
[17] = 8 mg once daily, Visit 5 (Day 43), Post-dose (2-6 hr), LOCF
[18] = 8 mg once daily, Visit 6 (Day 64), LOCF
[19] = 8 mg once daily, Visit 6 (Day 64), Post-dose (2-6 hr), LOCF
[20] = 8 mg once daily, Visit 7 (EOS, Day 84), LOCF
[21] = 8 mg once daily, Visit 7 (EOS, Day 84), Post-dose (2-6 hr), LOCF

Compound: C[C@H](Cc1cc2c(c(C(N)=O)c1)N(CCCO)CC2)NCCOc1ccccc1OCC(F)(F)F [Silodosin]
- Incidence of Adverse Events: Dizziness (symptoms of BPH [1]): 2.6 % of patients
- Incidence of Adverse Events: Orthostatic Hypotension (symptoms of BPH [1]): 2.6 % of patients
- Incidence of Adverse Events: Syncope (symptoms of BPH [1]): 0 % of patients
- Mean Change From Baseline (CFB) in Maximum Flow Rate (symptoms of BPH [1]; 2-6 hrs after 1st dose): 2.7 mL/s
- IPSS/AUASS baseline value (symptoms of BPH [1]; Week 0): 21.5
- Maximum Flow Rate baseline value (symptoms of BPH [1]; Week 0): 9.0 mL/s
- Mean Change From Baseline (CFB) in IPSS/AUASS (symptoms of BPH [1]; Week 0.5): −3.9
- Mean Change From Baseline (CFB) in IPSS/AUASS (symptoms of BPH [1]; Week 1): −4.5
- Mean Change From Baseline (CFB) in Maximum Flow Rate (symptoms of BPH [1]; Week 1): 2.2 mL/s
- Mean Change From Baseline (CFB) in IPSS/AUASS (symptoms of BPH [1]; Week 2): −5.3
- Mean Change From Baseline (CFB) in Maximum Flow Rate (symptoms of BPH [1]; Week 2): 2.6 mL/s
- Mean Change From Baseline (CFB) in IPSS/AUASS (symptoms of BPH [1]; Week 4): −5.9
- Mean Change From Baseline (CFB) in Maximum Flow Rate (symptoms of BPH [1]; Week 4): 2.4 mL/s
- Mean Change From Baseline (CFB) in IPSS/AUASS (symptoms of BPH [1]; Week 12): −6.7
- Mean Change From Baseline (CFB) in Maximum Flow Rate (symptoms of BPH [1]; Week 12): 2.1 mL/s
- Q-max, Mean (SD) (symptoms of BPH [2]; [4]): 12.2 (4.4) ml/sec
- Q-max, Mean change (SD) (symptoms of BPH [2]; [4]): 2.5 (3.6) ml/sec
- Q-max, Mean (SD) (symptoms of BPH [2]; 4 mg once daily, Visit 3 (baseline, Day 29), Pre-dose, LOCF): 9.7 (3.0) ml/sec
- Total IPSS/AUASS Score, Mean (SD) (symptoms of BPH [2]; 4 mg once daily, Visit 3 (baseline, Day 29), modified intent to treat (LOCF)): 19.7 (5.1)
- Total IPSS/AUASS Score, Mean (SD) (symptoms of BPH [2]; [5]): 17.3 (5.6)
- Total IPSS/AUASS Score, Mean change (SD) (symptoms of BPH [2]; [5]): −2.4 (4.0)
- Q-max, Mean (SD) (symptoms of BPH [2]; [6]): 12.4 (4.7) ml/sec
- Q-max, Mean change (SD) (symptoms of BPH [2]; [6]): 2.7 (4.4) ml/sec
- Total IPSS/AUASS Score, Mean (SD) (symptoms of BPH [2]; [7]): 15.5 (5.6)
- Total IPSS/AUASS Score, Mean change (SD) (symptoms of BPH [2]; [7]): −4.2 (4.5)
- Q-max, Mean (SD) (symptoms of BPH [2]; [8]): 12.2 (4.7) ml/sec
- Q-max, Mean change (SD) (symptoms of BPH [2]; [8]): 2.6 (4.2) ml/sec
- Total IPSS/AUASS Score, Mean (SD) (symptoms of BPH [2]; [9]): 14.6 (6.0)
- Total IPSS/AUASS Score, Mean change (SD) (symptoms of BPH [2]; [9]): −5.1 (5.1)
- Q-max, Mean (SD) (symptoms of BPH [2]; [10]): 12.0 (4.3) ml/sec
- Q-max, Mean change (SD) (symptoms of BPH [2]; [10]): 2.3 (4.1) ml/sec
- Total IPSS/AUASS Score, Mean (SD) (symptoms of BPH [2]; [11]): 13.9 (6.0)
- Total IPSS/AUASS Score, Mean change (SD) (symptoms of BPH [2]; [11]): −5.7 (5.5)
- Q-max, Mean (SD) (symptoms of BPH [2]; [12]): 12.6 (4.4) ml/sec
- Q-max, Mean change (SD) (symptoms of BPH [2]; [12]): 2.9 (4.0) ml/sec
- Q-max, Mean (SD) (symptoms of BPH [2]; [13]): 11.7 (3.5) ml/sec
- Q-max, Mean change (SD) (symptoms of BPH [2]; [13]): 2.0 (3.1) ml/sec
- Q-max, Mean (SD) (symptoms of BPH [2]; 8 mg once daily, Visit 3 (baseline, Day 29), Pre-dose, LOCF): 9.6 (2.7) ml/sec
- Total IPSS/AUASS Score, Mean (SD) (symptoms of BPH [2]; 8 mg once daily, Visit 3 (baseline, Day 29), modified intent to treat (LOCF)): 20.8 (5.3)
- Total IPSS/AUASS Score, Mean (SD) (symptoms of BPH [2]; [14]): 18.0 (6.0)
- Total IPSS/AUASS Score, Mean change (SD) (symptoms of BPH [2]; [14]): −2.7 (3.7)
- Q-max, Mean (SD) (symptoms of BPH [2]; [15]): 12.5 (4.8) ml/sec
- Q-max, Mean change (SD) (symptoms of BPH [2]; [15]): 2.9 (4.4) ml/sec
- Total IPSS/AUASS Score, Mean (SD) (symptoms of BPH [2]; [16]): 16.5 (6.0)
- Total IPSS/AUASS Score, Mean change (SD) (symptoms of BPH [2]; [16]): −4.3 (3.9)
- Q-max, Mean (SD) (symptoms of BPH [2]; [17]): 12.5 (5.7) ml/sec
- Q-max, Mean change (SD) (symptoms of BPH [2]; [17]): 2.9 (5.4) ml/sec
- Total IPSS/AUASS Score, Mean (SD) (symptoms of BPH [2]; [18]): 15.9 (6.4)
- Total IPSS/AUASS Score, Mean change (SD) (symptoms of BPH [2]; [18]): −4.9 (4.6)
- Q-max, Mean (SD) (symptoms of BPH [2]; [19]): 12.9 (5.6) ml/sec
- Q-max, Mean change (SD) (symptoms of BPH [2]; [19]): 3.2 (5.5) ml/sec
- Total IPSS/AUASS Score, Mean (SD) (symptoms of BPH [2]; [20]): 14.0 (6.5)
- Total IPSS/AUASS Score, Mean change (SD) (symptoms of BPH [2]; [20]): −6.8 (5.8)
- Q-max, Mean (SD) (symptoms of BPH [2]; [21]): 13.0 (5.8) ml/sec
- Q-max, Mean change (SD) (symptoms of BPH [2]; [21]): 3.5 (5.7) ml/sec
- Incidence of Adverse Events: Dizziness (symptoms of BPH [2]; 4 mg once daily): 9.1 % of patients
- Incidence of Adverse Events: Orthostatic Hypotension (symptoms of BPH [2]; 4 mg once daily): 4.5 % of patients
- Incidence of Adverse Events: Syncope (symptoms of BPH [2]; 4 mg once daily): 0 % of patients
- Mean Change From Baseline (CFB) in Maximum Flow Rate (symptoms of BPH [2]; 4 mg once daily, 2-6 hrs after 1st dose): 2.5 mL/s
- IPSS/AUASS baseline value (symptoms of BPH [2]; 4 mg once daily): 19.7
- Maximum Flow Rate baseline value (symptoms of BPH [2]; 4 mg once daily): 9.7 mL/s
- Mean Change From Baseline (CFB) in IPSS/AUASS (symptoms of BPH [2]; 4 mg once daily, Week 1): −2.4
- Mean Change From Baseline (CFB) in Maximum Flow Rate (symptoms of BPH [2]; 4 mg once daily, Week 1): 2.7 mL/s
- Mean Change From Baseline (CFB) in IPSS/AUASS (symptoms of BPH [2]; 4 mg once daily, Week 2): −4.2
- Mean Change From Baseline (CFB) in Maximum Flow Rate (symptoms of BPH [2]; 4 mg once daily, Week 2): 2.6 mL/s
- Mean Change From Baseline (CFB) in IPSS/AUASS (symptoms of BPH [2]; 4 mg once daily, Week 5): −5.1
- Mean Change From Baseline (CFB) in Maximum Flow Rate (symptoms of BPH [2]; 4 mg once daily, Week 5): 2.3 mL/s
- Mean Change From Baseline (CFB) in IPSS/AUASS (symptoms of BPH [2]; 4 mg once daily, Week 8): −5.7
- Mean Change From Baseline (CFB) in Maximum Flow Rate (symptoms of BPH [2]; 4 mg once daily, Week 8): 2.9 mL/s
- Incidence of Adverse Events: Dizziness (symptoms of BPH [2]; 8 mg once daily): 5.6 % of patients
- Incidence of Adverse Events: Orthostatic Hypotension (symptoms of BPH [2]; 8 mg once daily): 3.3 % of patients
- Incidence of Adverse Events: Syncope (symptoms of BPH [2]; 8 mg once daily): 0 % of patients
- Mean Change From Baseline (CFB) in Maximum Flow Rate (symptoms of BPH [2]; 8 mg once daily, 2-6 hrs after 1st dose): 2.0 mL/s
- IPSS/AUASS baseline value (symptoms of BPH [2]; 8 mg once daily): 20.8
- Maximum Flow Rate baseline value (symptoms of BPH [2]; 8 mg once daily): 9.6 mL/s
- Mean Change From Baseline (CFB) in IPSS/AUASS (symptoms of BPH [2]; 8 mg once daily, Week 1): −2.7
- Mean Change From Baseline (CFB) in Maximum Flow Rate (symptoms of BPH [2]; 8 mg once daily, Week 1): 2.9 mL/s
- Mean Change From Baseline (CFB) in IPSS/AUASS (symptoms of BPH [2]; 8 mg once daily, Week 2): −4.3
- Mean Change From Baseline (CFB) in Maximum Flow Rate (symptoms of BPH [2]; 8 mg once daily, Week 2): 2.9 mL/s
- Mean Change From Baseline (CFB) in IPSS/AUASS (symptoms of BPH [2]; 8 mg once daily, Week 5): −4.9
- Mean Change From Baseline (CFB) in Maximum Flow Rate (symptoms of BPH [2]; 8 mg once daily, Week 5): 3.2 mL/s
- Mean Change From Baseline (CFB) in IPSS/AUASS (symptoms of BPH [2]; 8 mg once daily, Week 8): −6.8
- Mean Change From Baseline (CFB) in Maximum Flow Rate (symptoms of BPH [2]; 8 mg once daily, Week 8): 3.4 mL/s
- Incidence of Adverse Events: Dizziness (symptoms of BPH [3]): 3.9 % of patients
- Incidence of Adverse Events: Orthostatic Hypotension (symptoms of BPH [3]): 2.6 % of patients
- Mean Change From Baseline (CFB) in Maximum Flow Rate (symptoms of BPH [3]; 2-6 hrs after 1st dose): 2.9 mL/s
- IPSS/AUASS baseline value (symptoms of BPH [3]; Week 0): 21.2
- Maximum Flow Rate baseline value (symptoms of BPH [3]; Week 0): 8.4 mL/s
- Mean Change From Baseline (CFB) in IPSS/AUASS (symptoms of BPH [3]; Week 0.5): −4.4
- Mean Change From Baseline (CFB) in IPSS/AUASS (symptoms of BPH [3]; Week 1): −5.0
- Mean Change From Baseline (CFB) in Maximum Flow Rate (symptoms of BPH [3]; Week 1): 2.9 mL/s
- Mean Change From Baseline (CFB) in IPSS/AUASS (symptoms of BPH [3]; Week 2): −5.6
- Mean Change From Baseline (CFB) in Maximum Flow Rate (symptoms of BPH [3]; Week 2): 2.9 mL/s
- Mean Change From Baseline (CFB) in IPSS/AUASS (symptoms of BPH [3]; Week 4): −6.2
- Mean Change From Baseline (CFB) in Maximum Flow Rate (symptoms of BPH [3]; Week 4): 2.7 mL/s
- Mean Change From Baseline (CFB) in IPSS/AUASS (symptoms of BPH [3]; Week 12): −6.6
- Mean Change From Baseline (CFB) in Maximum Flow Rate (symptoms of BPH [3]; Week 12): 3.1 mL/s
- Incidence of Adverse Events: Syncope (symptoms of BPH [3]; one subject, using excluded medication Prazosin): 0.4^1 % of patients
